BindingDB's records for doi:10.1021/jm00145a017 (1985)

Assay: Intrinsic affinity towards serotonin receptor from rat frontal cortex by displacement of [3H]spiperone.

With `FC(F)(F)c1ccc2c(c1)N1CCNCC1CC2` (stereo not drawn) [9-Trifluoromethyl-2,3,4,4a,5,6-hexahydro-1H-pyrazino[1,2-a]quinoline] the Ki was 0.136 µM.

Work on `Clc1cncc(N2CCNCC2)n1` [L-630,571] yielded a Ki of 6 µM.

For `FC(F)(F)c1cccc(N2CCNCC2)c1` [TFMPP], the Ki was 0.298 µM.
